Tests used:
[1] = target: T1, HIV-1 Nucleocapsid Protein (NCp7) (Human immunodeficiency virus type 1 group M subtype B, UniProt P12493); assay: Fluorescence-based (TSQ) assay of zinc ejection from purified HIV-1 NCp7; type: biochemical; conditions: 10 μM compound, 2.8 μM NCp7, 47 μM TSQ, pH 7.4, 26° C., 90 minutes
T1 construct: The NCp7 protein containing 2 Zn-fingers and 2 Zn ions
Source text: The compounds of the present invention cause the extrusion of zinc from the nucleocapsid protein (NCp7) of HIV-1. The NC protein is highly conserved among all retroviruses (South T., Blake P., et al., Biochemistry, 1990;;29:7786) and is essential for viral infectivity (Aldovini A. and Young R., J. Virology, 1990;64:1920 and Gorelick R., Nigida S., et al., J. Virology, 1990;64:3207). The zinc is normally held in NC proteins by 1 or 2 zinc fingers. In the case of HIV-1, 2 zinc fingers are present (Summers M., South T., et al., Biochemistry, 1990;29:329) and are involved specifically with the PSI site on viral RNA which controls the packaging of viral RNA. Interference of this packaging causes the formation of non-infectious virions (Dannull J., Surovoy A., et al., EMBO, 1994;13:1525). It has previously been shown that compounds that cause zinc extrusion have potent anti-HIV activity in multiple cell lines and against all retroviruses (Rice W., Schaeffer C., et al., Nature, 1993;361:473).
A fluorescence-based assay has been developed to monitor the ejection of zinc from purified HIV-1 NCp7. The fluorophore, N-(6-methoxy-8-quinolyl)-p-toluenesulfonamide (TSQ), has an increased fluorescent signal upon bonding zinc ion in solution. The NCp7 protein containing 2 Zn-fingers and 2 Zn ions is incubated with drug causing the extrusion of Zn ions. The released Zn is then sequestered by the TSQ and the increased fluorescence monitored relative to control. The assay was performed as follows: 10 μM compound was added to 2.8 μM NCp7 and 47 μM TSQ in 20 μL of pH 7.4 buffer at 26° C. for 90 minutes. Fluorescence (excitation 355 nm emission 400 nm) was monitored versus time. Controls were the NCp7 under assay conditions without drug, and apo NCp7 (no Zn) with drug. The % Zn extrusion was calculated based on the actual fluorescence measured divided by the fluorescence of all theoretical Zn extruded (5.6 μM)×100.
Table 1 below presents the results of testing several of the invention compounds in zinc extrusion assay described above. The compounds were evaluated for their ability to cause the extrusion of zinc from nucleocapsid protein NCp7 (expressed as % relative to control).

HIV = assay: CEM cell assay, anti-HIV activity (XTT, protection from viral cytopathic effects); type: cell-based; conditions: Human immunodeficiency virus 1, CCRF-CEM; Effective concentration which protects cells from viral cytopathic effects
Source text: The test systems utilized to establish the cellular antiviral activity of the isothiazolones of Formula I are well recognized in the art and are routinely employed for such purpose. For example, the assay utilized to evaluate the compounds activity against the HIV virus is that employed by the U.S. National Cancer Institute as described by Weislow O. S., et al., J. Natl. Cancer Inst., 1989;81:577-586, incorporated herein by reference.
The procedure is designed to detect agents acting at any stage of the virus reproductive cycle. The assay basically involves the killing of T4 lymphocytes by HIV. Small amounts of HIV are added to cells, and at least two complete cycles of virus reproduction are necessary to obtain the required cell killing. Agents which interact with virions, cells, or virus gene-products to interfere with viral activities will protect cells from cytolysis. The system is automated in several features to accommodate large numbers of candidate agents, and is generally designed to detect anti-HIV activity. However, compounds which degenerate or are rapidly metabolized in the culture conditions may not show activity in this screen.
Yet another test system employed to determine antiviral activity is called the CEM cell assay.
T4 lymphocytes (CEM cell line) are exposed to HIV at a virus to cell ratio approximately 0.05, and plated along with noninfected control cells in 96-well microliter plates.
Candidate agent is dissolved in dimethyl sulfoxide (unless otherwise noted), then diluted 1:200 in cell culture medium. Further dilutions (half-log10) are prepared before adding to an equal volume of medium containing either infected or noninfected cells.
Cultures are incubated at 37° in a 5% carbon dioxide atmosphere for 6 or 7 days. The tetrazolium salt, XTT, is added to all wells, and cultures are incubated to allow formazan color development by viable cells J. National Cancer Institute, 1989;81:577-586. Individual wells are analyzed spectrophotometrically to quantitate formazan production, and in addition are viewed microscopically for detection of viable cells confirmation of protective activity.
Drug-tested virus-infected cells are compared with drug-treated noninfected cells and with other appropriate controls (untreated infected and untreated noninfected cells, drug-contain wells without cells, etc.) on the same plate. Data are reviewed in comparison with other tests done at the same time and a determination about activity is made.

[2] = CEM cell assay, toxicity (growth inhibition); type: cell-based; conditions: human, cem cells; Toxic concentration which inhibits the growth of cells 50% relative to control; read-out: CEM Cell Assay TC50
Protocol: T4 lymphocytes (CEM cell line) are exposed to HIV at a virus to cell ratio approximately 0.05, and plated along with noninfected control cells in 96-well microliter plates. Candidate agent is dissolved in dimethyl sulfoxide (unless otherwise noted), then diluted 1:200 in cell culture medium. Further dilutions (half-log10) are prepared before adding to an equal volume of medium containing either infected or noninfected cells. Cultures are incubated at 37° in a 5% carbon dioxide atmosphere for 6 or 7 days. The tetrazolium salt, XTT, is added to all wells, and cultures are incubated to allow formazan color development by viable cells J. National Cancer Institute, 1989;81:577-586. Individual wells are analyzed spectrophotometrically to quantitate formazan production, and in addition are viewed microscopically for detection of viable cells confirmation of protective activity. Drug-tested virus-infected cells are compared with drug-treated noninfected cells and with other appropriate controls (untreated infected and untreated noninfected cells, drug-contain wells without cells, etc.) on the same plate. Data are reviewed in comparison with other tests done at the same time and a determination about activity is made.

[3] = target: T2, rabbit reticulocyte 15-LO (Oryctolagus cuniculus, UniProt P12530); assay: Colorimetric Assay of 15-LO Inhibition; type: biochemical; conditions: colorimetric method
T2 construct: rabbit reticulocyte 15-LO; from tissue; host or cells: rabbit reticulocytes
T2 sequence (P12530 1-663): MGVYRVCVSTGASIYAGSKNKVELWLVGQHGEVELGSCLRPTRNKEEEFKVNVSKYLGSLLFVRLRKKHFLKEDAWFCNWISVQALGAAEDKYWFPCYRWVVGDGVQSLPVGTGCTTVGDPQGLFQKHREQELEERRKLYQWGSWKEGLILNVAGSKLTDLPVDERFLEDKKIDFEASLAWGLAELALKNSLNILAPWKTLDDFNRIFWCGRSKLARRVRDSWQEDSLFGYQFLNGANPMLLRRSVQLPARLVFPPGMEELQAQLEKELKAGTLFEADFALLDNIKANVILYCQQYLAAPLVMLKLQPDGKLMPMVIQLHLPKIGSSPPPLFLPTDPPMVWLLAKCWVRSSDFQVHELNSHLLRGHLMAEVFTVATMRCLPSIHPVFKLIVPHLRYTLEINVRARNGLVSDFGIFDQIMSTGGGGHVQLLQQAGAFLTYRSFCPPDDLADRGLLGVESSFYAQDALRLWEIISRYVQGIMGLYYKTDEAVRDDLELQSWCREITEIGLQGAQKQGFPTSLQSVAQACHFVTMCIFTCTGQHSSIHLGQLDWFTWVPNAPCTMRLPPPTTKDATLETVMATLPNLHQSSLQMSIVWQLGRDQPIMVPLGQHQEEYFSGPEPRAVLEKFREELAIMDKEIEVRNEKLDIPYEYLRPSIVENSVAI
Protocol: The isothiazolones of Formula I are also effective for treating inflammation and atherosclerosis. A characteristic feature of atherosclerosis is the accumulation of cholesteryl ester engorged from foam cells. Foam cells are derived from circulating monocytes which invade artery walls in response to hypercholesterolemia, and mature into tissue macrophages. […] Specifically, representative compounds were evaluated by the methods described by Auerbach, et al., Analytical Biochemistry, 1992;201:375-380. Two in vitro assays were utilized, both utilizing rabbit reticulocyte 15-LO, and linoleic acid as substrate, to enzymatically produce a peroxide oxidation product known as 13(S)-HPODE. N-Benzoyl leucomethylene blue was utilized as a colorimetric reagent for detection and quantification of the peroxide formation. Also, HPLC was utilized to quantify the oxidation following incubation at 4° C. for 10 minutes.
Table 3 gives the concentration of compound required to inhibit 50% of the activity of 15-LO (IC50) when measured by the HPLC method of Auerbach, et al. Table 4 gives the percent inhibition of 15-LO activity when evaluated by the colorimetric method.

Row | inhibition at 10 µM [3] [%] | SMILES | % Zn Extrusion Relative to Control [1] [%] | EC50 (HIV) [µM] | CC50 [2] [µM]
1 | 75 | CC(=O)NS(=O)(=O)c1ccc(-n2sc3ccccc3c2=O)cc1 [Example 3, N-Acetyl-4-(3-oxo-3h-benzo[d]isothiazol-2-yl)-benzenesulfonamide] |  |  | 
2 | 95 | CCN(CC)CCn1sc2nc(-c3ccccc3)ncc2c1=O [Example 21, 2-[2-(Diethylamino)ethyl]-6-phenyl-isothiazolo[5,4-d] pyrimidin-3(2H)-one] |  |  | 
3 | 65 | COc1ccc(-c2ccc3c(=O)n(CCN(C)C)sc3n2)cc1OC [Example 108] |  |  | 
4 | 22 | CN(C)CCn1sc2nc3ccccc3cc2c1=O [Example 109] |  |  | 

Second part, the molecule before the results:

Row | SMILES | inhibition at 10 µM [3] [%] | % Zn Extrusion Relative to Control [1] [%] | EC50 (HIV) [µM] | CC50 [2] [µM]
5 | CC[C@H](C)[C@@H](C(=O)O)n1sc2ccccc2c1=O [Example 2, [S-(R*,R*)]-3-Methyl-2-(3-oxo-3h-benzo[d]isothiazol-2-yl)pentanoic acid] |  | 30 | 14 | > 100
6 | CC(C)C(C(=O)O)n1sc2ccccc2c1=O (stereo not shown) [Example 14, 3-Methyl-2-(3-oxo-3h-benzo[d]isothiazol-2-yl)-butanoic acid] |  | 71 | 21 | > 100
7 | O=C(O)CCCn1sc2ccccc2c1=O [Example 17, 4-(3-Oxo-2-h-benzo[d]isothiaz-2-yl) butanoic acid] |  | 78 | 5.8 | > 100
8 | O=C(O)Cc1ccc(-n2sc3ccccc3c2=O)cc1 [Example 25, 4-(3-Oxo-3h-benz-[d]isothiazol-2-yl)-phenyl acetic acid] |  | 89 | 5.8 | 69
